Measured values: PMC9356275, “A quantitative high-throughput screen identifies compounds that lower expression of the SCA2-and ALS-associated gene ATXN2” (The Journal of Biological Chemistry, 2022)
Like-named read-outs stand apart in the source and are kept apart here.

What was measured:
[1] = tested on: ATXN2-luc; assay: MSSR pilot screen: ATXN2-luc luciferase assay (Bright-Glo) in H2 cells, single 10 μM dose; type: cell-based, human; conditions: H2 cells, single dose (title: 10 μM compound), overnight
[2] = tested on: ATXN2-luc; assay: Secondary assays: ATXN2-luc in S2 and H2 cells, 12 doses, Bright-Glo; type: cell-based, human; conditions: summary data; for IC50: ATXN2-luc luciferase assays in H2 and S2 cells, 12 doses plus a zero dose, read-out: Mean IC50; for min ATXN2-luc (%): minimum ATXN2-luc signal over 12 doses, H2 and S2 cells
[3] = tested on: CMV-luc; assay: Secondary assays: CMV-luc in SC cells, Bright-Glo; type: cell-based, human; conditions: minimum CMV-luc signal in SC cells over 12 doses; summary data
Description: (§1) Compounds were plated at 2× concentrations in phenol red–free DMEM in 25 μl in 384-well plates with each compound dose plated in triplicate. An equal volume of S2, H2, or SC cells (24,000 cells/well) suspended in phenol red–free DMEM with 10% fetal bovine serum and 1× penicillin/streptomycin were added. Cells were grown 24 h and then assayed first by using the CellTiter-Fluor reagent (20 μl) followed by the addition of Bright-Glo (65 μl) luciferase assay, using a multimode plate reader (Beckman; DT880). Values were reported as the mean ± SD with n = 3. IC50s were determined by the Hill coefficient method using an online tool (https://www.aatbio.com/tools/ic50-calculator).

[4] = Secondary assays: multiplexed cell viability (CellTiter-Fluor); conditions: human
Description: (§2) The values for H2 and S2 were used as replicates to calculate IC50s and to assess cell viability.
as §1

[5] = tested on: S2, H2 or SC cells; assay: in vitro
Description: as §2, §1

[6] = minimum viability, multiplexed CellTiter-Fluor, over 12 doses, summary data

SMILES	SD from mean (ATXN2-luc, Z-score) [1]	IC50 ([2]; Homo sapiens)	min ATXN2-luc (%) [2]	min SC luc (%) [3]	viability at 24 h [4]	IC50 [2]	min viability (%) [5]	min viability (%) [5, 6]
CC[C@@]1(O)C(=O)OCc2c1cc1n(c2=O)Cc2cc3ccccc3nc2-1 [Camptothecine (S+)]	-5.283 SD	40 nM	14.3715%	42.7084%	92.1%			
O=c1[nH]c(=O)n([C@H]2C[C@H](O)[C@@H](CO)O2)cc1F [NCGC00023722-07, Floxuridine]		166 nM	25.6595%	37.5061%	97.9%			
N[C@@H](Cc1ccc(N(CCCl)CCCl)cc1)C(=O)O [NCGC00090757-05, Melphalan]			44.8372%	79.9664%	89.3%			
C=CCNC1=C2C[C@@H](C)C[C@H](OC)[C@H](O)[C@@H](C)/C=C(\C)[C@H](OC(N)=O)[C@@H](OC)/C=C\C=C(/C)C(=O)NC(=CC1=O)C2=O [NCGC00163424-03, tanespimycin]		442 nM	23.7455%	96.2287%	83.6%			
Cc1ccc2nc(NCCN)c3ncc(C)n3c2c1 [NCGC00165761-02]			20.5589%	96.0167%		4050 nM	77.5673%	
COc1cc2ncn(-c3cc(OCc4ccccc4C(F)(F)F)c(C(N)=O)s3)c2cc1OC [NCGC00242217-04, GW843682X]		9770 nM	57.1311%	87.9923%	75.5%			
NC(=O)Nc1cc(-c2cccc(F)c2)sc1C(=O)N[C@H]1CCCNC1 [NCGC00242481-02, AZD7762]					78.1%			
CN(c1ncccc1CNc1nc(Nc2ccc3c(c2)CC(=O)N3)ncc1C(F)(F)F)S(C)(=O)=O [NCGC00242495-01, PF-00562271]			15.5052%	98.3015%		2320 nM		64.5946%
COc1c(C)cnc(Cn2cnc3c(Cl)nc(N)nc32)c1C [NCGC00247877-01]			17.8512%	68.1668%		329 nM	91.8481%	
CCNC(=O)c1noc(-c2cc(C(C)C)c(O)cc2O)c1-c1ccc(CN2CCOCC2)cc1 [NCGC00247878-01]			17.8831%	63.2542%		44 nM		94.6315%
CCNC(=O)c1cc2c(-c3cc(OCCN4CCCC4)c(Cl)cc3Cl)nc(N)nc2s1 [NCGC00247879-01, NVP-BEP800]			22.6428%	85.4541%		1790 nM	89.936%	
Cc1cccc(Nc2nc(N[C@@H]3CCCC[C@H]3N)ncc2C(N)=O)c1 [NCGC00253909-01]			64.2535%	86.8204%		25400 nM	94.6197%	
O=C(NC1CCNCC1)c1[nH]ncc1NC(=O)c1c(Cl)cccc1Cl [NCGC00263091-01, AT7519]		162 nM	14.5407%	103.668%	50.3%			
Cc1ccc(-c2ncn(-c3ccc(Nc4nccc(-c5cccc(N6CCOCC6)c5)n4)cc3)n2)cn1 [NCGC00263146-01]			15.6493%	82.9006%		1300 nM	65.3662%	
S=C(NCc1ccc2c(c1)OCO2)N1CCN(c2ncnc3c2oc2ccccc23)CC1 [NCGC00263158-01, MP470]		3020 nM	55.0637%	74.2577%	87.7%			
CNC(=O)c1cc(Oc2ccc(NC(=O)Nc3cc(C(C)(C)C)nn3-c3ccc4ncccc4c3)c(F)c2)ccn1 [NCGC00263172-01, DCC-2036]		3730 nM	27.0713%	60.5803%	56.6%			
C=CCn1c(=O)c2cnc(Nc3ccc(N4CCN(C)CC4)cc3)nc2n1-c1cccc(C(C)(C)O)n1 [NCGC00263183-01, MK 1775]		343 nM	21.7344%	63.0447%	77.9%			
O=C(O)c1ccc2c(c1)nc(Nc1cccc(Cl)c1)c1ccncc12 [NCGC00263192-02]			45.6416%	93.7801%		10200 nM	77.6315%	

SMILES	SD from mean (ATXN2-luc, Z-score) [1]	IC50 ([2]; Homo sapiens)	min ATXN2-luc (%) [2]	min SC luc (%) [3]	viability at 24 h [4]	IC50 [2]	min viability (%) [5]	min viability (%) [5, 6]
C[C@@]12OC(=O)[C@]1([C@@H](O)[C@@H]1C=CCCC1)NC(=O)[C@H]2CCCl [NCGC00344630-01]			16.5036%	96.8804%		1110 nM		75.9573%
Cc1cc(Nc2cc(CN3CCOCC3)c3nc(C)c(Cc4ccc(Cl)cc4F)n3n2)n[nH]1 [NCGC00345461-02, LY2784544]		21100 nM	23.1503%	67.1857%	81.6%			
CN[C@@H]1CN(c2ccc3c(=O)c(C(=O)O)cn(-c4nccs4)c3n2)C[C@@H]1OC [NCGC00346437-01]			15.1045%	64.0102%		488 nM		71.6056%
C=CCNc1c(O)cc2c(O)c1C[C@@H](C)C[C@H](OC)[C@@H](O)[C@@H](C)C=C(C)[C@H](OC(N)=O)[C@@H](OC)C=CC=C(C)C(=O)N2 [NCGC00346438-01]			24.2069%	94.9947%		546 nM	91.4914%	
C[C@@H](Oc1ccc2[nH]nc(C=Cc3cnn(CCO)c3)c2c1)c1c(Cl)cncc1Cl [NCGC00346459-01]			15.2562%	64.272%		1390 nM		66.1226%
O=C1NC(=O)/C(=C/c2ccc3nccc(-c4ccncc4)c3c2)S1 [NCGC00346509-01, GSK 1059615]		57500 nM	51.4419%	85.5514%	75.5%			
CN(C)CCN1C(=O)c2cccc3cc(N)cc(c23)C1=O [NCGC00346513-01, amonafide]		1840 nM	21.7231%	69.6561%	68.2%			
Nc1ncnc2c1c(-c1cnc3[nH]ccc3c1)nn2C1CCCC1 [NCGC00346619-01, PP121]			27.4759%	78.0969%		4160 nM		50.3878%
O=c1[nH]c2ccc(Cl)cc2c(N[C@@H]2CN3CCC2CC3)c1-c1nc2ccccc2[nH]1 [NCGC00346626-01, CHIR-124]			17.9767%	69.3978%		219 nM		75.0552%
CC1(C)CC(=O)c2c(C(F)(F)F)nn(-c3ccc(C(N)=O)c(N[C@H]4CC[C@H](O)CC4)c3)c2C1 [NCGC00346633-01, SNX 2112]				82.2819%	83.3%			
CC1(C)CC(=O)c2c(C(F)(F)F)nn(-c3ccc(C(N)=O)c(NC4CCC(OC(=O)CN)CC4)c3)c2C1 (stereo not shown) [NCGC00346640-01, PF 04929113]			19.9722%	69.7843%		88 nM	87.146%	
Cn1cc(-c2cnn3c(N)c(Br)c([C@H]4CCCNC4)nc23)cn1 [NCGC00346653-01]			25.4941%	91.5137%		388 nM		87.0431%
CNC(=O)c1nn(C)c2c1C(C)(C)Cc1cnc(Nc3ccc(N4CCN(C)CC4)cc3)nc1-2 [NCGC00346673-01, PHA-848125]		436 nM	15.8759%	96.2246%	74.4%			
CC(C)c1cc(C(=O)N2Cc3ccc(CN4CCN(C)CC4)cc3C2)c(O)cc1O [NCGC00346674-01, AT13387]		178 nM	22.3111%	71.1894%	90.6%			
CC(C)c1cc(-c2n[nH]c(=O)n2-c2ccc3c(ccn3C)c2)c(O)cc1O [NCGC00346678-01]			17.7351%	55.4123%		30 nM		77.8152%
CCc1c(O)cc(O)c(C(=O)c2ccc(OCCN3CCOCC3)c(OC)c2)c1CC(=O)N(CCOC)CCOC [NCGC00346685-01, KW-2478]			23.9372%	105.888%		587 nM	97.6731%	
O=C(Nc1cccc(Nc2ncc(Br)c(NCCc3cnc[nH]3)n2)c1)N1CCCC1 [NCGC00346687-01, BX-912]			54.9395%	100.351%		8890 nM	84.397%	
Oc1ccc(-c2ccc(-c3cc(Nc4cccc(CNC5CC5)c4)n[nH]3)cc2)c(O)c1 [NCGC00346954-01]			20.2623%	54.3112%		545 nM	61.7259%	
